Test results: US11643415B1, “Rabeximod compounds” (CYXONE AB, priority 2021, dated 2023)
≈ marks a conversion by molar mass, not a printed value. Counter-ions that a name gives are not always drawn. Marks after values point to notes of the source that are not given here.

Experiments:
[1] = Quantitative (thermodynamic) solubility determination, shake-flask, LCMS against calibration line; type: physicochemical; conditions: for Solubility in water: room temperature, suspensions stirred for 18 h, LCMS; for solubility at 4 h: 25 °C, thermodynamic from solid
Method: The thermodynamic solubility of Rabeximod free base (Form 1) was determined in 3 different USP buffers (50 mM) ranging from pH 1.2 to pH 7.4 and in water (Exp. ID: QSA21-24) by the shake-flask method at 25° C. (
Table ). Approximately 30 mg was added to approximately 1 ml of the selected buffer and the resulting suspension was equilibrated at RT for 4 hours under continuous stirring. After 15 min and after 4 h of stirring, the pH of the solution was recorded. Upon completion of the equilibration time, the suspensions were centrifuged. The solution was filtered and diluted before LCMS analysis to determine the API concentration in solution. The residue was dried under vacuum and the obtained dried solids were analyzed by XRPD. A standard LC calibration curve was prepared, and the diluted mother liquors were measured to determine the API concentration.
The solubility of the freebase (Form 1) and salts prepared by scale-up was determined in water at room temperature. Suspensions were stirred for 18 h after which the liquid phase was isolated and measured by LCMS against a calibration line. The solids were dried and measured by XRPD to determine the solid form. The lowest solubility was determined for the freebase (Form 1). The signal was lower than the calibration line and therefore the solubility was determined to be <0.005 mg/ml. […] The experimental details are described in table 5.
Table 5. Experimental details and results of the solubility determination for Rabeximod free base Form 1) as well as salt Mes1 in water and in 3 buffers with pH range 1.2-7.4. The pH of the solutions after 15 minutes and 4 hours are reported. The solubility was determined after 4h equilibration by measuring the liquid phase with LCMS against a calibration line.

[2] = Accelerated aging conditions (AAC), solid form remeasured by XRPD; type: physicochemical; conditions: 3 days at 40° C. and 75% RH
Method: All solids were exposed to AAC (40° C./75% RH for 3 days) and remeasured by HT-XRPD. After that, 750 μl of a selected solvent was added. The vials were transferred to a Crystal16™ parallel crystallizer and the suspensions were stirred at 750 rpm at 50° C. for 18h after which the suspensions were subjected to centrifugation and the solids were isolated, dried under vacuum (50° C., 5 mbar, 18 h) and analyzed by HT-XRPD. The experimental conditions and results are shown below in Table 1 and Table 2 for the first and second set of experiments, respectively. The obtained XRPD patterns for the crystallinesalts made are shown in FIGS. 1 (HCl), 2 (Mao) and 3 (Mes).
Experimental conditions and results of the hydrochloride and malonic acid salt crystallization experiments. In all experiments, 750 μl of solvent was used. Counterion (Cl) abbreviations denote pure counterions whereas counterions with a number denote novel salt forms. After subjecting suspensions of API:Cl to thermocycles, the solids were isolated, dried (5 mbar, 50° C., 18 h) and analyzed by XRPD. The liquid phases were dried, and the resulting solids were analyzed by XRPD. Most solids were subjected to AAC (40° C., 75% RH, 3 days) and remeasured by XRPD.

[3] = Pharmacokinetic characterization after i.v. and p.o. administration to male CD-1 mice; type: in vivo; conditions: for CL as % of mouse liver blood flow: liver blood flow 120 ml/min/kg
Method: IV formulations were prepared on the day of dosing. The formulations were prepared by weighing the compound into brown glass vial; on the day of dosing ClinOleic 20% intravenous fat emulsion ([…], Tamro) was added into tubes (1,5 mg/mL in 20% ClinOleic). Formulations were homogenized 5 minutes before dosing. IV formulations were administered within 5 hours after preparation.
PO formulations were prepared day before administration. The formulations were prepared by formulating the test items in PO vehicle (6 mg/ml in 0.45% (v/v) Tween 80-0.11% (w/v) sodium carboxy methylcellulose (CMC) in tap water). The suspensions were mixed with vortex and stored refrigerated (+4° C.) over night. On the day of dosing formulations were homogenized 15 minutes before dosing.
Naïve animals were used in the study (see Table 6). They were housed in individually ventilated (IVC)-cages in groups of six mice. The cages were provided with aspen bedding (4HP and PM90L, Tapvei, Estonia) and paper strands (Sizzlenest, Datesand, UK) as nesting material, and a paper pulp cabin and red polycarbonate cylinder (Datesand, UK) as cage enrichment. The temperature (22±2° C.), humidity (55±10%) and air exchange rate (75 times/h) of the IVC-cages and 12/12-h light/dark cycle (500 lux lighting on at 6 a.m., 1.5 lux lighting […].) of the animal holding room were automatically controlled and maintained. Animals were allowed to acclimatize to the site for at least five days prior to the study. Animals had ad libitum access to food (SDS diets, RM1 (E) 801002, Special Diets Services, UK) and tap water at all times, and their welfare was assured with daily observations.
Study compounds were administered via the specified route and the times of dosing and blood sampling were recorded. Within 30 min following the sampling, the blood was centrifuged for plasma separation (room temperature; 10 min; 2700 G). The plasma samples were transferred into plastic tubes, frozen and stored at −20° C. until analysis. Clinical signs and general behavior of the animals were recorded, when necessary.
The pharmacokinetic parameters were calculated using Phoenix 64 (Build 6.4.0.768) WinNonlin (version 6.4) software, using non-compartmental methods (NCA). Nominal doses were used for all animals. The terminal phase half-life (T1/2) was calculated by least-squares regression analysis of the terminal linear part of the log concentration—time curve. The area under the plasma concentration—time curve (AUC) was determined with the linear trapezoidal rule for increasing values and log trapezoidal rule for decreasing values up to the last measurable concentration (AUC0-last), and extrapolation of the terminal elimination phase to infinity was used when possible; the following criteria were used:
Minimum of 3 points (not including Cmax) used to calculate lambda (with R^2 adjusted >0.85)
T1/2 shorter than the time-span used to calculate lambda
The maximum plasma concentration (Cmax) and the time to reach Cmax (tmax) were derived directly from the plasma concentration data.

[4] = Qualitative solubility determination in water at room temperature (visual, water added until dissolved); type: physicochemical; conditions: for Solubility in water: RT, estimated by adding water to the salt until dissolved; for Dissolution in water (in words): room temperature
Method: The solubility of the salts in water at RT was estimated by adding water to the salt until the salt dissolved. […] From the TGMS data it was estimated whether the salts are stochiometric hydrates or not.
The solubility of a selection of salts from the salt screen was estimated at room temperature in water. To approximately 2 mg of salt, solvent aliquots were added in steps of 50 μl until the material was dissolved as observed visually by the naked eye.

[5] = Dynamic vapor sorption (hygroscopicity / moisture sorption); type: physicochemical
Method: Differences in hygroscopicity (moisture uptake) of the various forms of a solid material provided a measure of their relative stability at increasing relative humidity. Moisture sorption isotherms of small samples were obtained using a DVS-1 system from Surface Measurement Systems (London, UK); this instrument is suitable for use with a few milligrams of sample, with an accuracy of 0.1 μg. The relative humidity was varied during sorption-desorption-sorption (40-95-0-40% RH) at a constant temperature of 25° C. Weight equilibration per step was set at dm/dt <0.0002 mg/min for a minimum of 1 hour or maximum of 6 hours. Afterwards the sample was measured by HT-XRPD.
The hygroscopicity was classified according to the European Pharmacopoeia Hygroscopicity classification. Water uptake percentage at 25° C./80%RH (24h) is:
Change in mass <0.2%—Non-hygroscopic
Change in mass >2% & <15%—Moderately hygroscopic
Change in mass >15%—Very hygroscopic

[6] = i.v., 3.00 mg/kg, male CD1 mice
[7] = p.o., 30.0 mg/kg, male CD1 mice
[8] = male, CD-1, mouse, plasma, po, 30 mg/kg, male CD1 mice
[9] = male, CD-1, mouse, plasma, iv, 3 mg/kg, male CD1 mice

Salt form after AAC [2]	AUC0-inf [3, 6]	T1/2 [3, 6]	Time of peak plasma concentration (tmax) [3, 6]	Vss [3, 6]	clearance [3, 6]	mean C0 [3, 6]	mean Cmax [3, 6]	CL as % of mouse liver blood flow ([3]; i.v., 3.00 mg/kg)	AUC0-last [3, 7]	Time of peak plasma concentration (tmax) [3, 7]	mean Cmax [3, 7]	Solubility in water [4]	further results	SMILES
HCl	2220 ng·h/mL	8.43 h	0.0833 h	14.2 L/kg	22.6 mL/min/kg	600 ng/mL	454 ng/mL	18.8%	13 700 h*ng/ml	4.00 h	893 ng/mL	2000 to 5700 µg/mL	Solubility ([1]; medium water, listed as HCI (TCS160)): 5.45 mg/mL; Solubility in water ([1]; listed as HCl1): 5500 µg/mL	Cc1cc2nc3c4cc(Cl)ccc4n(CC(=O)NCCN(C)C)c3nc2cc1C [Rabeximod HCl]
Mao	1870 ng·h/mL	8.43 h	0.0833 h	16.9 L/kg	26.8 mL/min/kg	390 ng/mL	355 ng/mL	22.3%	11 400 h*ng/ml	0.17 h	1140 ng/mL	5500 to 10200 µg/mL	Solubility ([1]; medium water, listed as Mao (TCS161)): 5.26 mg/mL (≈ 12800 µM); Solubility in water ([1]; listed as Mao1): 5300 µg/mL (≈ 12900 µM)	Cc1cc2nc3c4cc(Cl)ccc4n(CC(=O)NCCN(C)C)c3nc2cc1C [Rabeximod Mao]
Mes	2320 ng·h/mL	9.80 h	0.0833 h	15.9 L/kg	21.5 mL/min/kg	507 ng/mL	383 ng/mL	17.9%	11 600 h*ng/ml	2.00 h	707 ng/mL	13300 µg/mL	Water uptake ([5]; DVS, 25° C.): 12.2%; Form after DVS ([5]; sorption-desorption-sorption 40-95-0-40% RH, 25° C., HT-XRPD): Mes1; Solubility ([1]; medium HCl, pH buffer 1.2, 4 h equilibration, listed as Mes (TCS35)): 0.014 mg/mL (≈ 34.2 µM); Solubility ([1]; medium phosphate buffer, pH buffer 6.5, 4 h equilibration, listed as Mes (TCS35)): 0.042 mg/mL (≈ 102 µM); Solubility ([1]; medium water, listed as Mes (TCS35)): 13.26 mg/mL (≈ 32300 µM); solubility at 4 h ([1]; phosphate buffer, pH 7.4, aqueous buffer, medium phosphate buffer, pH buffer 7.4, 4 h equilibration): 3 µg/mL (≈ 7.32 µM); Solubility in water ([1]; listed as Mes1): 13300 µg/mL (≈ 32400 µM); half-life [3, 8]: 8.93 h	Cc1cc2nc3c4cc(Cl)ccc4n(CC(=O)NCCN(C)C)c3nc2cc1C [Rabeximod Mes]
–	681 ng·h/mL	–	–	49.4 L/kg	73.4 mL/min/kg	–	150 ng/mL	61.2%	–	4.00 h	–	–	Physical stability upon exposure to relative humidity ([5]; relative humidity values between 0-95%): remained physically stable; Hygroscopicity classification (European Pharmacopoeia) ([5]; water uptake at 25° C./80%RH): slightly hygroscopic; solubility at 4 h ([1]; HCl buffer, pH 1.2, simulated gastric fluid, medium HCl, pH buffer 1.2, 4 h equilibration): 13 µg/mL (≈ 31.7 µM); Solubility ([1]; medium phosphate buffer, pH buffer 6.5, 4 h equilibration, listed as Form 1 (SM)): 0.005* mg/ml; Solubility ([1]; medium phosphate buffer, pH buffer 7.4, 4 h equilibration, listed as Form 1 (SM)): <LOD; Solubility ([1]; medium water, listed as Form 1 (SM)): <0.005 mg/mL; Solubility in water ([1]; listed as freebase): < 5 µg/mL; Tmax ([3]; male, CD-1, mouse, plasma, iv, 3 mg/kg, i.v., 3.00 mg/kg, male CD1 mice, read-out: Time of peak plasma concentration (tmax)): 5 min; C0 [3, 9]: 351 ng/mL; half-life [3, 9]: 8.99 h; AUC(0-t) [3, 8]: 8330 ng·h/mL; Cmax [3, 8]: 728 ng/mL; Dissolution in water (in words) [4]: close to insoluble in water; Dissolution in water (in words) ([4]; listed as freebase): no sign of dissolution	Cc1cc2nc3c4cc(Cl)ccc4n(CC(=O)NCCN(C)C)c3nc2cc1C [Rabeximod, 9-Chloro-2,3-dimethyl-6-(N,N-dimethylaminoethylamino-2-oxoethyl)-6H-indolo-[2,3-b]quinoxaline]
